The record followed here is patent US20250270445A1, “COMPOUNDS AND USES THEREOF IN FIELD OF OPTOELECTRONICS” (Zhejiang Brilliant Optoelectronic Technology Co.,Ltd., priority 2022, published 2025).

Where only a bound is given, the exact number is not on record here.

Format in all cases: physicochemical
Data set [1] can be described thus: Solubility of compounds in toluene. As to the method:
The solubility of the compounds in the toluene were determined as follows: • 1. 1000 mg of toluene solution was placed in the transparent glass sample bottle. • 2. A certain mass of the compound was added into the toluene, and oscillated until completely dissolved. • 3. After the compound was completely dissolved, a certain mass of the compound was further added into the toluene, and oscillated. • 4. The above steps were repeated until the compound wasn't dissolved any more. • 5. The total mass of the compound added was recorded and the solubility was obtained by calculation.

Data set [2] can be described thus: Absorption spectrum, emission spectrum and extinction coefficient in toluene solution. As to conditions: for Molar extinction coefficient of the toluene solution: maximum absorption peak. As to the method:
The extinction coefficients of the compounds and their absorption and emission spectrums in the solution were determined as follows: • 1. The compound with a certain amount of substance concentration in the toluene was prepared in a volumetric flask. • 2. The absorption spectrum of the solution was measured by using an ultraviolet-visible spectrophotometer (Puxi T9s) to obtain the absorption peak wavelength. • 3. The absorbance of the maximum absorption peak divided by the amount of substance concentration is the molar extinction coefficient of the compound. • 4. The emission spectrum of the solution was measured by using a fluorescent spectroscope (Hitachi, F-4700 FL Spectrophotometer) to obtain the emission peak wavelength.

The nature of data set [3]: Absorption and emission spectrum in spin-coated film. The settings on record: for Absorption peak of the film / Emission peak of the film: spin-coated film. As to the method: The absorption and emission spectrums of the compounds in the film were determined as follows: • 1. The compound with a certain concentration in the toluene was prepared. • 2. The prepared toluene solution was dropped onto a clean glass substrate. • 3. Spin-coating, and then heating at the 80° C. for 1 min. • 4. The absorption spectrum of the film was measured by using an ultraviolet-visible spectrophotometer (Puxi T9s) to obtain the absorption peak wavelength. • 5. The emission spectrum of the film was measured by using a fluorescent spectroscope (Hitachi, F-4700 FL Spectrophotometer) to obtain the emission peak wavelength.

Data set [4] can be described thus: UV stability of compounds in toluene (absorbance decay to 80%). As to conditions: 1×10^−5 mol/L in toluene, UV LEDs 365 nm & 255 nm, time to 80% absorbance, normalized to comparative compound 2 as 100%. As for the experimental part: The compound was dissolved in the toluene with a concentration of 1×10^−5 mol/L. 3 mL solution was added to the cuvette with a lid and the lid was screwed on tightly, then the cuvette was placed in the ultraviolet-visible spectrophotometer to test the absorption spectrum, the absorbance of the maximum absorption peak was recorded as the initial value. The cuvette was placed at a distance of 12 cm from the UV LEDs (365 nm & 255 nm), irradiated for a period and tested its absorption spectrum, then continued to be irradiated after the test, and repeated until the absorbance decayed to 80% of its initial value, the time was recorded as t80.

Turning to `CC(C)(C)c1ccc2c(c1)c1cc(C(C)(C)C)cc3c1n2-c1cccc2c1B3c1cc3c4ccccc4c4ccccc4c3c3c4c5c6ccccc6c6ccccc6c5ccc4n-2c13` [E2], the “Solubilities(/100 g, toluene)” value in data set [1] is more than 0.7 g/100 g toluene. In data set [2], the “Absorption peak of the toluene solution” value came to 507 nm, the “Emission peak of the toluene solution” value is recorded as 523 nm and the “Molar extinction coefficient of the toluene solution” value (shortened to “Molar extinction coefficient”) was 4.8 × 10^4 L · mo 1^−1.

On to `CC(C)(C)c1ccc2c(c1)c1cc(C(C)(C)C)cc3c1n2-c1cc(-c2c(-c4ccccc4)cc(-c4ccccc4)cc2-c2ccccc2)cc2c1B3c1cc3c4ccccc4c4ccccc4c3c3c4c5c6ccccc6c6ccccc6c5ccc4n-2c13` [E3], for which the “Solubilities(/100 g, toluene)” value in data set [1] was more than 0.7 g/100 g toluene. Besides, in data set [2], the “Absorption peak of the toluene solution” value was 512 nm, the “Emission peak of the toluene solution” value came to 530 nm and the “Molar extinction coefficient” value is recorded as 6.6 × 10^4 L · mo 1^−1.

On to `CCCCCCC1(CCCCCC)c2ccccc2-c2ccc(-c3ccccc3-c3ccc4c5cccc6c(-c7ccccc7-c7ccc8c(c7)C(CCCCCC)(CCCCCC)c7ccccc7-8)ccc(c7cccc3c74)c65)cc21` [comparative compound 1, reference compound], for which the “red shift of film spectrum versus solution spectrum” value in data set [3] (film versus toluene solution) is listed as “large red shift”. Also, in data set [3], the “Absorption peak of the film” value worked out at 464 nm and the “Emission peak of the film” value turned out to be 543 nm. In data set [2], the “Absorption peak of the toluene solution” value is listed as 461 nm, the “Emission peak of the toluene solution” value is 485 nm and the “Molar extinction coefficient” value was 4.3 × 10^4 L · mo 1^−1.

With `c1ccc(N(c2ccc(-c3ccc(N(c4ccccc4)c4ccc5c(c4)c4ccccc4n5-c4ccccc4)cc3)cc2)c2ccc3c(c2)c2ccccc2n3-c2ccccc2)cc1` [comparative compound 2, reference compound], the “Times t80” value in data set [4] is on record as 100%.

For the compound `Cc1cccc(C)c1N(c1ccccc1)c1cc(N(c2ccccc2)c2c(C)cccc2C)c2ccc3c(N(c4ccccc4)c4c(C)cccc4C)cc(N(c4ccccc4)c4c(C)cccc4C)c4ccc1c2c43` [compound 1], in data set [3], the “Absorption peak of the film” value was determined as 477 nm and the “Emission peak of the film” value stood at 497 nm. Moreover, the “Times t80” value in data set [4] is 190%. Besides, the “Solubilities(/100 g, toluene)” value in data set [1] is recorded as 1.5 g/100 g toluene. In data set [2], the “Absorption peak of the toluene solution” value was determined as 475 nm, the “Emission peak of the toluene solution” value is given as 490 nm and the “Molar extinction coefficient” value is 6.0 × 10^4 L · mo 1^−1.

`Cc1cccc(C)c1N(c1ccc(C(C)(C)C)cc1)c1cc(N(c2ccc(C(C)(C)C)cc2)c2c(C)cccc2C)c2ccc3c(N(c4ccc(C(C)(C)C)cc4)c4c(C)cccc4C)cc(N(c4ccc(C(C)(C)C)cc4)c4c(C)cccc4C)c4ccc1c2c43` [compound 3]: in data set [3], the “Absorption peak of the film” value is 479 nm and the “Emission peak of the film” value worked out at 497 nm. In data set [4], the “Times t80” value worked out at 212%. The “Solubilities(/100 g, toluene)” value in data set [1] worked out at 4.2 g/100 g toluene. In addition, in data set [2], the “Absorption peak of the toluene solution” value amounted to 477 nm, the “Emission peak of the toluene solution” value was found to be 495 nm and the “Molar extinction coefficient” value is 3.0 × 10^4 L · mo 1^−1.

Take `CC(C)c1cccc(C(C)C)c1N(c1ccc(C(C)(C)C)cc1)c1cc(N(c2ccc(C(C)(C)C)cc2)c2c(C(C)C)cccc2C(C)C)c2ccc3c(N(c4ccc(C(C)(C)C)cc4)c4c(C(C)C)cccc4C(C)C)cc(N(c4ccc(C(C)(C)C)cc4)c4c(C(C)C)cccc4C(C)C)c4ccc1c2c43` [compound 6]: the “Solubilities(/100 g, toluene)” value in data set [1] is more than 20 g/100 g toluene.

For `CC(C)c1cccc(C(C)C)c1N(c1cc(C(C)(C)C)cc(C(C)(C)C)c1)c1cc(N(c2cc(C(C)(C)C)cc(C(C)(C)C)c2)c2c(C(C)C)cccc2C(C)C)c2ccc3c(N(c4cc(C(C)(C)C)cc(C(C)(C)C)c4)c4c(C(C)C)cccc4C(C)C)cc(N(c4cc(C(C)(C)C)cc(C(C)(C)C)c4)c4c(C(C)C)cccc4C(C)C)c4ccc1c2c43` [compound 7], the “Solubilities(/100 g, toluene)” value in data set [1] is more than 20 g/100 g toluene.

For `Cc1cc2ccccc2cc1N(c1ccc(C(C)(C)C)cc1)c1cc(N(c2ccc(C(C)(C)C)cc2)c2cc3ccccc3cc2C)c2ccc3c(N(c4ccc(C(C)(C)C)cc4)c4cc5ccccc5cc4C)cc(N(c4ccc(C(C)(C)C)cc4)c4cc5ccccc5cc4C)c4ccc1c2c43` [compound 10], in data set [1], the “Solubilities(/100 g, toluene)” value is more than 2.5 g/100 g toluene.

Regarding `Cc1cc2ccccc2c(C)c1N(c1ccc(C(C)(C)C)cc1)c1cc(N(c2ccc(C(C)(C)C)cc2)c2c(C)cc3ccccc3c2C)c2ccc3c(N(c4ccc(C(C)(C)C)cc4)c4c(C)cc5ccccc5c4C)cc(N(c4ccc(C(C)(C)C)cc4)c4c(C)cc5ccccc5c4C)c4ccc1c2c43` [compound 11], the “Solubilities(/100 g, toluene)” value in data set [1] is reported as more than 2 g/100 g toluene.

`Cc1cccc(C)c1N(c1ccc(C(F)(F)F)cc1)c1cc(N(c2ccc(C(F)(F)F)cc2)c2c(C)cccc2C)c2ccc3c(N(c4ccc(C(F)(F)F)cc4)c4c(C)cccc4C)cc(N(c4ccc(C(F)(F)F)cc4)c4c(C)cccc4C)c4ccc1c2c43` [compound 12]: the “Solubilities(/100 g, toluene)” value in data set [1] is recorded as more than 4 g/100 g toluene.

For `CC(C)c1ccc(-c2cc(-c3cc(C(C)(C)C)cc(C(C)(C)C)c3)ccc2N(c2cc(F)c(F)c(F)c2)c2cc(N(c3cc(F)c(F)c(F)c3)c3ccc(-c4cc(C(C)(C)C)cc(C(C)(C)C)c4)cc3-c3ccc(C(C)C)cc3)c3ccc4c(N(c5cc(F)c(F)c(F)c5)c5ccc(-c6cc(C(C)(C)C)cc(C(C)(C)C)c6)cc5-c5ccc(C(C)C)cc5)cc(N(c5cc(F)c(F)c(F)c5)c5ccc(-c6cc(C(C)(C)C)cc(C(C)(C)C)c6)cc5-c5ccc(C(C)C)cc5)c5ccc2c3c54)cc1` [compound 14], in data set [3], the “Absorption peak of the film” value is listed as 471 nm and the “Emission peak of the film” value came to 493 nm. In data set [1], the “Solubilities(/100 g, toluene)” value is listed as more than 5 g/100 g toluene. In addition, in data set [2], the “Absorption peak of the toluene solution” value was 475 nm, the “Emission peak of the toluene solution” value is on record as 494 nm and the “Molar extinction coefficient” value was 5.1 × 10^4 L · mo 1^−1.

On to `CCCCCCCCc1ccc(-c2c(N(c3cc(F)c(F)c(F)c3)c3cc(N(c4cc(F)c(F)c(F)c4)c4ccc5ccccc5c4-c4ccc(CCCCCCCC)cc4)c4ccc5c(N(c6cc(F)c(F)c(F)c6)c6ccc7ccccc7c6-c6ccc(CCCCCCCC)cc6)cc(N(c6cc(F)c(F)c(F)c6)c6ccc7ccccc7c6-c6ccc(CCCCCCCC)cc6)c6ccc3c4c65)ccc3ccccc23)cc1` [compound 17], for which, in data set [3], the “Absorption peak of the film” value turned out to be 476 nm and the “Emission peak of the film” value came out at 497 nm. Further, the “Solubilities(/100 g, toluene)” value in data set [1] is more than 4 g/100 g toluene. Moreover, in data set [2], the “Absorption peak of the toluene solution” value came out at 475 nm, the “Emission peak of the toluene solution” value worked out at 494 nm and the “Molar extinction coefficient” value is given as 5.8 × 10^4 L · mo 1^−1.

For `CCCCCCCCc1ccc(-c2cc(N(c3ccc(C(C)(C)C)cc3)c3ccc(C(C)(C)C)cc3)ccc2N(c2cc(F)c(F)c(F)c2)c2cc(N(c3cc(F)c(F)c(F)c3)c3ccc(N(c4ccc(C(C)(C)C)cc4)c4ccc(C(C)(C)C)cc4)cc3-c3ccc(CCCCCCCC)cc3)c3ccc4c(N(c5cc(F)c(F)c(F)c5)c5ccc(N(c6ccc(C(C)(C)C)cc6)c6ccc(C(C)(C)C)cc6)cc5-c5ccc(CCCCCCCC)cc5)cc(N(c5cc(F)c(F)c(F)c5)c5ccc(N(c6ccc(C(C)(C)C)cc6)c6ccc(C(C)(C)C)cc6)cc5-c5ccc(CCCCCCCC)cc5)c5ccc2c3c54)cc1` [compound 18], in data set [3], the “Absorption peak of the film” value stood at 487 nm and the “Emission peak of the film” value was determined as 518 nm. In addition, the “Solubilities(/100 g, toluene)” value in data set [1] is recorded as more than 10 g/100 g toluene. Further, in data set [2], the “Absorption peak of the toluene solution” value is 492 nm, the “Emission peak of the toluene solution” value is given as 520 nm and the “Molar extinction coefficient” value is 5.1 × 10^4 L · mo 1^−1.

Regarding `CC(C)c1ccc(N(c2cc(F)c(F)c(F)c2)c2cc(N(c3cc(F)c(F)c(F)c3)c3ccc(C(C)C)cc3/C=C/c3ccc(C(C)(C)C)cc3)c3ccc4c(N(c5cc(F)c(F)c(F)c5)c5ccc(C(C)C)cc5/C=C/c5ccc(C(C)(C)C)cc5)cc(N(c5cc(F)c(F)c(F)c5)c5ccc(C(C)C)cc5/C=C/c5ccc(C(C)(C)C)cc5)c5ccc2c3c54)c(/C=C/c2ccc(C(C)(C)C)cc2)c1` [compound 19], in data set [1], the “Solubilities(/100 g, toluene)” value is reported as more than 5 g/100 g toluene.
